In ChEMBL document CHEMBL4138123, “Design, synthesis and biological evaluation of novel pyrazolochalcones as potential modulators of PI3K/Akt/mTOR pathway and inducers of apoptosis in breast cancer cells” (Eur J Med Chem, 2017):
Active and inactive are the calls of the source. The rule behind the calls is not given here.

Key:
LOX IMVI [1] = experiment: Cytotoxicity against human LOXIMVI cells assessed as cell growth at 0.01 uM after 48 hrs by sulforhodamine B assay relative to control; type: functional; details: read-out: Activity
CAKI-1 [2] = experiment: Cytotoxicity against human Caki1 cells assessed as cell growth at 10 uM after 48 hrs by sulforhodamine B assay relative to control; type: functional; details: CAKI-1, 48 h, read-out: Activity
SK-MEL-2 [3] = experiment: Cytotoxicity against human SK-MEL-2 cells assessed as cell growth at 0.01 uM after 48 hrs by sulforhodamine B assay relative to control; type: functional; details: SK-MEL-2, 48 h, read-out: Activity
CAKI-1 [4] = experiment: Cytotoxicity against human Caki1 cells assessed as cell growth at 1 uM after 48 hrs by sulforhodamine B assay relative to control; type: functional; details: CAKI-1, 48 h, read-out: Activity
SK-MEL-2 [5] = experiment: Cytotoxicity against human SK-MEL-2 cells assessed as cell growth at 1 uM after 48 hrs by sulforhodamine B assay relative to control; type: functional; details: SK-MEL-2, 48 h, read-out: Activity
CAKI-1 [6] = experiment: Cytotoxicity against human Caki1 cells assessed as cell growth at 100 uM after 48 hrs by sulforhodamine B assay relative to control; type: functional; details: CAKI-1, 48 h, read-out: Activity
HOP-92 [7] = experiment: Cytotoxicity against human HOP92 cells assessed as growth inhibition after 48 hrs by sulforhodamine B assay; type: functional; details: HOP-92, 48 h
CAKI-1 [8] = experiment: Cytotoxicity against human Caki1 cells assessed as cell growth at 0.01 uM after 48 hrs by sulforhodamine B assay relative to control; type: functional; details: CAKI-1, 48 h, read-out: Activity
LOX IMVI [9] = experiment: Cytotoxicity against human LOXIMVI cells assessed as cell growth at 1 uM after 48 hrs by sulforhodamine B assay relative to control; type: functional; details: read-out: Activity
LOX IMVI [10] = experiment: Cytotoxicity against human LOXIMVI cells assessed as cell growth at 100 uM after 48 hrs by sulforhodamine B assay relative to control; type: functional; details: read-out: Activity
HOP-92 [11] = experiment: Cytotoxicity against human HOP92 cells assessed as cell growth at 0.1 uM after 48 hrs by sulforhodamine B assay relative to control; type: functional; details: HOP-92, 48 h, read-out: Activity
MCF7 [12] = experiment: Downregulation of PI3K mRNA expression in human MCF7 cells at 2 uM after 48 hrs by qRT-PCR analysis; type: functional, cell-based
CAKI-1 [13] = experiment: Cytotoxicity against human Caki1 cells assessed as growth inhibition after 48 hrs by sulforhodamine B assay; type: functional; details: CAKI-1, 48 h
MCF7 [14] = experiment: Upregulation of TP53 mRNA expression in human MCF7 cells at 2 uM after 48 hrs by qRT-PCR analysis; type: functional, cell-based
MCF7 [15] = experiment: Downregulation of Bcl-2 mRNA expression in human MCF7 cells at 2 uM after 48 hrs by qRT-PCR analysis; type: functional, cell-based
SK-MEL-2 [16] = experiment: Cytotoxicity against human SK-MEL-2 cells assessed as cell growth at 100 uM after 48 hrs by sulforhodamine B assay relative to control; type: functional; details: SK-MEL-2, 48 h, read-out: Activity
MCF7 [17] = experiment: Downregulation of mTOR protein expression in human MCF7 cells at 2 uM after 24 hrs by Western blot analysis; type: functional, cell-based
MCF7 [18] = experiment: Downregulation of Akt protein expression in human MCF7 cells at 2 uM after 48 hrs by Alexa/DAPI staining-based immunofluorescence analysis; type: functional, cell-based
HOP-92 [19] = experiment: Cytotoxicity against human HOP92 cells assessed as cell growth at 10 uM after 48 hrs by sulforhodamine B assay relative to control; type: functional; details: HOP-92, 48 h, read-out: Activity
HOP-92 [20] = experiment: Cytotoxicity against human HOP92 cells assessed as cell growth at 0.01 uM after 48 hrs by sulforhodamine B assay relative to control; type: functional; details: HOP-92, 48 h, read-out: Activity
LOX IMVI [21] = experiment: Cytotoxicity against human LOXIMVI cells assessed as cell growth at 10 uM after 48 hrs by sulforhodamine B assay relative to control; type: functional; details: read-out: Activity
SK-MEL-2 [22] = experiment: Cytotoxicity against human SK-MEL-2 cells assessed as cell growth at 0.1 uM after 48 hrs by sulforhodamine B assay relative to control; type: functional; details: SK-MEL-2, 48 h, read-out: Activity
HOP-92 [23] = experiment: Cytotoxicity against human HOP92 cells assessed as cell growth at 100 uM after 48 hrs by sulforhodamine B assay relative to control; type: functional; details: HOP-92, 48 h, read-out: Activity
MCF7 [24] = experiment: Upregulation of PTEN protein expression in human MCF7 cells at 2 uM after 24 hrs by Western blot analysis; type: functional, cell-based
HOP-92 [25] = experiment: Cytotoxicity against human HOP92 cells assessed as cell growth at 1 uM after 48 hrs by sulforhodamine B assay relative to control; type: functional; details: HOP-92, 48 h, read-out: Activity
SK-MEL-2 [26] = experiment: Cytotoxicity against human SK-MEL-2 cells assessed as cell growth at 10 uM after 48 hrs by sulforhodamine B assay relative to control; type: functional; details: SK-MEL-2, 48 h, read-out: Activity
LOX IMVI [27] = experiment: Cytotoxicity against human LOXIMVI cells assessed as cell growth at 0.1 uM after 48 hrs by sulforhodamine B assay relative to control; type: functional; details: read-out: Activity
SNB-75 [28] = experiment: Cytotoxicity against human SNB75 cells assessed as cell growth at 100 uM after 48 hrs by sulforhodamine B assay relative to control; type: functional; details: SNB-75, 48 h, read-out: Activity
SNB-75 [29] = experiment: Cytotoxicity against human SNB75 cells assessed as growth inhibition after 48 hrs by sulforhodamine B assay; type: functional; details: SNB-75, 48 h
SF-295 [30] = experiment: Cytotoxicity against human SF295 cells assessed as cell growth at 100 uM after 48 hrs by sulforhodamine B assay relative to control; type: functional; details: SF-295, 48 h, read-out: Activity
MCF7 [31] = experiment: Cell cycle arrest in human MCF7 cells assessed as accumulation at G2/M phase at 2 uM after 24 hrs by flow cytometric analysis (reference value: 2.35%); type: functional
SNB-75 [32] = experiment: Cytotoxicity against human SNB75 cells assessed as cell growth at 1 uM after 48 hrs by sulforhodamine B assay relative to control; type: functional; details: SNB-75, 48 h, read-out: Activity
SF-295 [33] = experiment: Cytotoxicity against human SF295 cells assessed as cell growth at 0.1 uM after 48 hrs by sulforhodamine B assay relative to control; type: functional; details: SF-295, 48 h, read-out: Activity
SNB-75 [34] = experiment: Cytotoxicity against human SNB75 cells assessed as cell growth at 0.01 uM after 48 hrs by sulforhodamine B assay relative to control; type: functional; details: SNB-75, 48 h, read-out: Activity
MCF7 [35] = experiment: Cell cycle arrest in human MCF7 cells assessed as accumulation at G0/G1 phase at 2 uM after 24 hrs by flow cytometric analysis (reference value: 18.4%); type: functional
MCF7 [36] = experiment: Induction of apoptosis in human MCF7 cells assessed as viable cells at 2 uM after 24 hrs by Annexin-V FITC/propidium iodide staining-based FACS analysis (reference value: 93.9%); type: functional; details: MCF7, 24 h, read-out: Activity
SNB-75 [37] = experiment: Cytotoxicity against human SNB75 cells assessed as cell growth at 10 uM after 48 hrs by sulforhodamine B assay relative to control; type: functional; details: SNB-75, 48 h, read-out: Activity
SF-295 [38] = experiment: Cytotoxicity against human SF295 cells assessed as cell growth at 1 uM after 48 hrs by sulforhodamine B assay relative to control; type: functional; details: SF-295, 48 h, read-out: Activity
SF-295 [39] = experiment: Cytotoxicity against human SF295 cells assessed as cell growth at 0.01 uM after 48 hrs by sulforhodamine B assay relative to control; type: functional; details: SF-295, 48 h, read-out: Activity
SNB-75 [40] = experiment: Cytotoxicity against human SNB75 cells assessed as cell growth at 0.1 uM after 48 hrs by sulforhodamine B assay relative to control; type: functional; details: SNB-75, 48 h, read-out: Activity
SF-295 [41] = experiment: Cytotoxicity against human SF295 cells assessed as growth inhibition after 48 hrs by sulforhodamine B assay; type: functional; details: SF-295, 48 h

Compound	growth at 0.01 µM (LOX IMVI [1]) [%]	growth at 10 µM (CAKI-1 [2]) [%]	growth at 0.01 µM (SK-MEL-2 [3]) [%]	growth at 1 µM (CAKI-1 [4]) [%]	growth at 1 µM (SK-MEL-2 [5]) [%]	growth at 100 µM (CAKI-1 [6]) [%]	growth at 0.01 µM (CAKI-1 [8]) [%]	growth at 1 µM (LOX IMVI [9]) [%]	growth at 100 µM (LOX IMVI [10]) [%]	Activity (MCF7 [12])	LC50 (CAKI-1 [13]) [µM]	Activity (MCF7 [14])	Activity (MCF7 [15])	growth at 100 µM (SK-MEL-2 [16]) [%]	Activity (MCF7 [17])	Activity (MCF7 [18])	growth at 10 µM (LOX IMVI [21]) [%]	growth at 0.1 µM (SK-MEL-2 [22]) [%]	Activity (MCF7 [24])	growth at 10 µM (SK-MEL-2 [26]) [%]	further results
COc1ccc(C(=O)/C=C/c2cc(-c3cc(OC)c(OC)c(OC)c3)n[nH]2)cc1	95	-17	92	89	97	1	95	85	-32	Active	> 100	Active	Active	-50	Active	Active	-92	90	Active	21	TGI (HOP-92 [7]): 3.04 µM; growth at 0.1 µM (HOP-92 [11]): 83%; growth at 10 µM (HOP-92 [19]): -56%; growth at 0.01 µM (HOP-92 [20]): 87%; growth at 100 µM (HOP-92 [23]): -36%; growth at 1 µM (HOP-92 [25]): 53%; growth at 0.1 µM (LOX IMVI [27]): 93%
COc1cc(C(=O)/C=C/c2cc(-c3ccc4c(c3)OCO4)n[nH]2)cc(OC)c1OC	–	-27	–	83	–	-82	96	–	–	Active	26.1	Active	Active	–	Active	Active	–	–	Active	–	growth at 100 µM (SNB-75 [28]): -100%; GI50 (SNB-75 [29]): 2.4 µM; LC50 (concentration killing 50% of cells) (SNB-75 [29]): 26.1 µM; TGI (SNB-75 [29]): 7.27 µM; growth at 100 µM (SF-295 [30]): -89%; Activity (MCF7 [31]): 64.6%; growth at 1 µM (SNB-75 [32]): 90%; growth at 0.1 µM (SF-295 [33]): 95%; GI50 (CAKI-1 [13]): 1.99 µM; TGI (CAKI-1 [13]): 5.65 µM; growth at 0.01 µM (SNB-75 [34]): 85%; Activity (MCF7 [35]): 35.4%; viability at 2 µM (MCF7 [36]): 89.2%; growth at 10 µM (SNB-75 [37]): -14%; growth at 1 µM (SF-295 [38]): 85%; growth at 0.01 µM (SF-295 [39]): 93%; growth at 0.1 µM (SNB-75 [40]): 87%; GI50 (SF-295 [41]): 2.58 µM; LC50 (SF-295 [41]): 36.4 µM; TGI (SF-295 [41]): 10.1 µM
COc1ccc(C(=O)/C=C/c2cc(-c3cc(OC)c(OC)c(OC)c3)n[nH]2)cc1OC	92	-33	86	94	98	-91	97	73	-79	Active	19.4	Active	Active	-96	Active	Active	-93	91	Active	-81	Activity (MCF7 [31]): 39.9%; TGI (CAKI-1 [13]): 5.46 µM; Activity (MCF7 [35]): 30.8%; viability at 2 µM (MCF7 [36]): 94.3%; growth at 0.1 µM (LOX IMVI [27]): 92%
